In patent publication US8530404B2, “Compounds and methods for treatment of cancer” (FibroGen, Inc., priority 2005, dated 2013):
Marks after values point to notes of the source that are not given here.

Legend:
[1] = test system: HCT116-GFP colon tumors; assay: Orthotopically implanted human HCT116-GFP colon tumor mouse xenograft (Example 4); assay type: in vivo; conditions: 60 mg/kg intraperitoneal at four day intervals, three doses
Procedure: Procedures were carried out as described above for Example 3, except that the tumors of GFP-transfected H-460 cells were replaced with HCT116-GFP colon tumors, and surgical orthotopic implantation was directly into colon tissue.
The HCT116 tumor model used here is a well-characterized representative colon xenograft model. The isolation of the human HCT116 tumor cell line from a human colon carcinoma has been described. (Brattain et al (1981) Cancer Res 41:1751-1756.) To aid in the detection of tumors and metastases, HCT116 cells were transduced with genes directing the expression of fluorescent proteins (e.g., HCT116-GFP). The use of fluorescent HCT116-derived tumors in similar studies has been described previously. (Ross et al (2000) Nat Genet 24:227-235.)
HCT116-GFP tumor fragments harvested from the stock animals were transplanted into animals by surgical orthotopic implantation (SOI) as follows. The animals were anesthetized with isoflurane and the surgical area was sterilized using iodine and alcohol. After proper exposure of the colon following a lower midline abdominal incision, the serosa of the colon was removed and two pieces of 1 mm^3 tumor fragments per mouse were implanted. An 8-0 surgical suture was used to penetrate these small tumor pieces and suture them on the wall of the intestine. The intestine was then returned to the abdominal cavity. The incision in the abdominal wall was closed with a 6-0 surgical suture in one layer. The animals were kept under isoflurane anesthesia during surgery. All procedures of the operation described above were performed under a 7× magnification microscope (Olympus). Animals were kept in a barrier facility under HEPA filtration.
Administration of Compound A or 5-FU (5-Flurouracil) to the animals was initiated three days following tumor transplantation. 5-FU, a chemotherapeutic agent used as a positive control, was administered by intraperitoneal injection (60 mg/kg) at four day intervals for a total of three doses. Compound A was administered at either 20 mg/kg or 60 mg/kg three times per week. Tumor volumes were measured at day 15, day 22, and day 29.

[2] = test system: human H-460-GFP lung tumors; assay: Orthotopically implanted human H-460-GFP lung tumor mouse xenograft, survival and metastasis (Example 3); assay type: in vivo; conditions: 7.5 mg/kg i.v. on days 3, 7, 11
Procedure: To examine the effect of methods and compounds of the present invention in a metastatic model of tumor progression, compounds of the invention were administered to orthotopically implanted H-460-GFP xenografted animals. Tumor models employing surgical orthotopic implantation (SOI) into the organ of origin of the original tumor are regarded as representative of cancer progression and metastasis in humans. Orthotopic implantation of H-460 increases the rate of tumor metastasis.
This experiment is carried out as described in Example 1 above, with the following modifications. To aid in identification and scoring of metastasis, the human H-460 lung cancer cell line was replaced by genetically-engineered tumors of GFP-transfected H-460 cells. 1-2 mm^3 H460-GFP lung tumor fragments were implanted by surgical orthotopic implantation (SOI) and sutured directly into lung tissue. (Yang et al., (1998) Cancer Res 58:4217-4221.) Dosing was initiated immediately after successful confirmation of tumor take by fluorescent GFP imaging (˜5 days following tumor implantation). Doxorubicin (DOX, 7.5 mg/kg, i.v. administration) was used as a chemotherapy control, and was administered on treatment days 3, 7, and 11.
In addition to weekly caliper measurement of primary tumor size, GFP imaging was performed on animals to monitor primary tumor progression and metastasis, starting the first day of treatment. Study endpoints were reached when an average tumor size of 2 cc or three morbid mice appear in any one group, whichever occurs first, regardless of treatment duration. Each animal was checked daily for mortality or signs of morbidity. Morbid animals were frozen. All animals, including dead animals, were examined by GFP imaging for primary tumor and metastasis at necropsy. Imaging and caliper measurements were used to determine the effects of treatment. Primary tumors were excised, measured and weighed at necropsy. Blood samples were taken during terminal sacrifice and complete blood counts (CBC) and reticulocyte analysis were performed.
Tumor metastasis is associated with increased morbidity and mortality in humans with metastatic cancer and in animal models of metastatic cancer. […] The increased morbidity and mortality were recorded and animals were preserved for subsequent necropsy. The study was terminated after >3 animals were found morbid in the vehicle group on treatment day 14, at which point the remaining animals were sacrificed to evaluate and compare tumor progression in the various treatment groups.
To determine metastatic frequency, the thoracic and abdominal cavities of animals were examined by fluorescent imaging.

[3] = test system: human H-460 lung tumors; assay: Subcutaneously implanted human H-460 lung tumor mouse xenograft (Example 1); assay type: in vivo; conditions: 15 mg/kg i.v.
Text: Immuno-compromised athymic CD-1 nu/nu nude mice males (5-6 weeks old) were used in this study (Charles River Laboratories, Wilmington, Mass.). Animals were maintained in a HEPA-filtered environment during the experimental period. Cages, food, and bedding were autoclaved. Animal diets were obtained from Harlan Teklad (Madison, Wis.). […] The human H460 lung cancer cell line used was obtained from the National Cancer Institute. (Brower et al., (1986) Cancer Res 46:798-806.) Xenografted H-460 tumors are sensitive to chemotherapeutics commonly used in treatment of lung cancer. […] A stock tumor was established by subcutaneously injecting a cell suspension into nude mice. The resulting tumor was maintained in nude mice subcutaneously as tumor stock prior to use. Tumor implantation was performed when the stock tumors were in log phase of growth. Before implantation, tumor tissue was harvested from stock mice and placed in RPMI-1640 medium. Necrotic tissues were dissected away and viable tissues were cut into 1-2 mm^2 pieces. Tumor fragments were then transplanted subcutaneously to the right flank of the nude mice. Treatment (administration of compounds of the present invention) was started when the inoculated tumors reached approximately 100 mm^3, and continued for four weeks. […] [table] Sizes of the primary tumors were measured through the skin with calipers once per week. […] Body weight of the mice in each group was also measured once per week during the experimental period. All animals were sacrificed following thirty-two days of treatment. Primary tumors were excised and weighed on an electronic balance. Blood samples were taken during terminal sacrifice and placed in microhematocrit tubes containing EDTA. Complete Blood Counts (CBC) and reticulocyte analysis were performed with the Cell Dyn 3700 analyzer (Abbott Diagnostics), as described by the manufacturer.

[4] = Body weight in H-460 xenograft mice (Example 1); assay type: in vivo, mouse; conditions: 15 mg/kg i.v.
Procedure: (§1) Sizes of the primary tumors were measured through the skin with calipers once per week. Tumor volumes were calculated by the formula V═(W^2*L)/2. Body weight of the mice in each group was also measured once per week during the experimental period. All animals were sacrificed following thirty-two days of treatment. Primary tumors were excised and weighed on an electronic balance. Blood samples were taken during terminal sacrifice and placed in microhematocrit tubes containing EDTA. Complete Blood Counts (CBC) and reticulocyte analysis were performed with the Cell Dyn 3700 analyzer (Abbott Diagnostics), as described by the manufacturer.
Thus, differences in tumor progression as measured by mean tumor volumes could not be attributed to any generalized toxicity or suppression of normal metabolism that might have been detected by changes in body weights.

[5] = Complete blood counts and reticulocyte analysis in H-460 xenograft mice (Example 1); assay type: in vivo, mouse; conditions: study end; 15 mg/kg i.v.
Procedure: as §1

[6] = test system: H460 tumor cells; assay: Subcutaneous H460 lung tumor xenograft, tumor growth delay study in combination with chemotherapeutics (Example 6); assay type: in vivo, mouse; conditions: Cmpd A 60 mg/kg p.o., paclitaxel 15 mg/kg i.v., carboplatin 120 mg/kg i.p.; for Median TTE (Time-to-Endpoint, tumor volume >= 2 cc): vehicle group 16.2
Procedure: This study was used to determine the effect of combined treatments where compounds and methods of the invention were combined with conventional anti-tumor therapies. These experiments were performed essentially as described above in Example 3, except that 1×10^7 H460 tumor cells were implanted subcutaneously to the flanks of female Harlan nude animals. The number of animals in each group was 10. Treatments were initiated when tumors reached an average size of approximately 100 mm^3.
The study design was representative of tumor progression studies of the TGD (Tumor Growth Delay) type, using a protocol that required individual animals to be humanely euthanized after reaching a set endpoint of tumor volume greater than or equal to 2 cc.
These two chemotherapeutic agents are of two broad classes of conventional anti-tumor therapeutics: microtubule poisons (paclitaxcel); and DNA-directed agents, including the sub-classification of DNA alkylating agents (carboplatin). In tumor-bearing human patients, conventional anti-tumor therapy commonly use of one or both classes of chemotherapeutic agents.
The study was initiated with administration of conventional anti-tumor treatment or vehicle control, and followed one day after with administration of Compound A or vehicle control. […] (See Table 11 and Table 12 for compound and chemotherapeutic agent dosing schedule.)
Tumor progression was determined for each treatment group and is presented as median Time-to-Endpoint (TTE).

[7] = test system: human A549 lung tumors; assay: Subcutaneously implanted human A549 lung tumor mouse xenograft (Example 2); assay type: in vivo

SMILES: O=c1[nH]cc(F)c(=O)[nH]1 [Compound 5-FU, 5-Flurouracil, reference compound]
- mean tumor volume (calipers, mean +/- SD) ([1]; Treatment Day 15): 0 +/− 0
- mean tumor volume (calipers, mean +/- SD) ([1]; Treatment Day 22): 1 +/− 4
- mean tumor volume (calipers, mean +/- SD) ([1]; Treatment Day 29): 8 +/− 13

SMILES: COc1cccc2c1C(=O)c1c(O)c3c(c(O)c1C2=O)C[C@@](O)(C(=O)CO)C[C@@H]3O[C@H]1C[C@H](N)[C@H](O)[C@H](C)O1 [DOX, Doxorubicin, reference compound]
- Metastatic Incidence (proportion of animals exhibiting mediastinal lymph node metastasis) ([2]; vehicle 9/10): 4/10^#
- proportion of surviving animals ([2]; treatment day 9): 10/10
- proportion of surviving animals ([2]; treatment day 11): 10/10
- proportion of surviving animals ([2]; treatment day 12): 10/10
- proportion of surviving animals ([2]; treatment day 13): 10/10
- proportion of surviving animals ([2]; treatment day 14): 10/10

SMILES: CC(=O)O[C@H]1C(=O)[C@@]2(C)[C@H]([C@H](OC(=O)c3ccccc3)[C@]3(O)C[C@H](OC(=O)[C@H](O)[C@@H](NC(=O)c4ccccc4)c4ccccc4)C(C)=C1C3(C)C)[C@]1(OC(C)=O)CO[C@@H]1C[C@@H]2O [Taxol, paclitaxel, reference compound]
- mean tumor volume ([3]; day 0): 83 mm^3
- mean tumor volume ([3]; day 10): 387 mm^3
- mean tumor volume ([3]; day 17): 813** mm^3
- mean tumor volume ([3]; day 24): 1160** mm^3
- mean tumor volume ([3]; day 31): 1292** mm^3
- Mean Tumor Weight at Necropsy ([3]; day 32): 1.59 g
- mean animal body weight ([4]; day 0): 26.6 grams
- mean animal body weight ([4]; day 10): 29.5 grams
- mean animal body weight ([4]; day 17): 30.6 grams
- mean animal body weight ([4]; day 24): 31.1 grams
- mean animal body weight ([4]; day 31): 30.9 grams
- Abs Retic (reticulocyte count) [5]: 462
- Baso % [5]: 0.67%
- Baso (basophils) [5]: 70 µL⁻¹
- EOS % [5]: 0.83%
- Eos (eosinophil count) [5]: 70 µL⁻¹
- HCT (hematocrit) [5]: 41.5%
- HGB (hemoglobin) [5]: 14.1 g/dL
- IRF (immature RET fraction) [5]: 0.56
- Lymph % [5]: 24.7%
- Lymph (lymphocytes) [5]: 2600 µL⁻¹
- MCH (mean corpuscular hemoglobin) [5]: 15.6 pg
- MCV (mean corpuscular volume) [5]: 45.9 fL
- Mono (monocytes) [5]: 300 µL⁻¹
- Neut % [5]: 70.8%
- Neut (neutrophils) [5]: 7400 µL⁻¹
- PLAT (platelets) [5]: 1.943e+06 µL⁻¹
- RBC (red blood cells) [5]: 9.03e+06 µL⁻¹
- RDW (RBC distribution width) [5]: 21.8%
- RET (reticulocytes) [5]: 5.1%
- WBC (white blood cells) [5]: 10400 µL⁻¹
- % TGD, Percent Tumor Growth Delay (vs. Group control) [6]: 104%
- T-C (Test-control, difference of medians) [6]: 16.9 days
- Median TTE (Time-to-Endpoint, tumor volume >= 2 cc) [6]: 33.1 days
- tumor weight at necropsy, Mean ([7]; 15 mg/kg i.v.): 0.45 g
- A549 mean tumor volume ([7]; week 0, 15 mg/kg i.v.): 106 mm^3
- A549 mean tumor volume ([7]; week 1, 15 mg/kg i.v.): 130 mm^3
- A549 mean tumor volume ([7]; week 2, 15 mg/kg i.v.): 152 mm^3
- A549 mean tumor volume ([7]; week 3, 15 mg/kg i.v.): 177 mm^3
- A549 mean tumor volume ([7]; week 4, 15 mg/kg i.v.): 179 mm^3
- A549 mean tumor volume ([7]; week 5, 15 mg/kg i.v.): 186 mm^3
- A549 mean tumor volume ([7]; week 6, 15 mg/kg i.v.): 231 mm^3
- A549 mean tumor volume ([7]; week 7, 15 mg/kg i.v.): 275 mm^3
- A549 mean tumor volume ([7]; week 8, 15 mg/kg i.v.): 347 mm^3
- A549 mean tumor volume ([7]; week 9, 15 mg/kg i.v.): 360 mm^3
- increase in mean tumor volume ([7]; within 1 week (7 days) from start, Taxol 15 mg/kg i.v., vehicle control 45%): 23%

SMILES: N.N.O=C([O-])C1(C(=O)[O-])CCC1.[Pt+2] [carboplatin]
- % TGD, Percent Tumor Growth Delay (vs. Group control) [6]: 107%
- T-C (Test-control, difference of medians) [6]: 17.3 days
- Median TTE (Time-to-Endpoint, tumor volume >= 2 cc) [6]: 33.5 days
